Data on one molecule can be found in patent US6821530B2, “Polymer composite compositions” (Shriners Hospitals for Children, priority 2000, dated 2004).

The nature of data set [1]: NDGA quantitation in culture medium by capillary zone electrophoresis. Type of data set: physicochemical. The arrangement: Initial NDGA remaining in medium: dose or concentration left out as unconfirmed. As for the experimental part: NDGA Quantitation: The amount of NDGA in the buffers, eluents, and medium was determined by capillary zone electrophoresis on a Dionex CES. A sodium borate buffer (10 mM sodium borate, 50 mM boric acid, pH 8.0) was chosen for electrophoresis because it was known that borate efficiently complexes with catechols and increases absorptivity (Waite et al., Methods. Enzymol. 107:397-413, 1984). Samples were diluted in electrophoresis buffer, loaded by electrophoresis (5000 V for 5 seconds) onto a […] inner diameter×80 cm long hollow glass capillary, and electrophoresed at 20 kV. NDGA was detected by absorbance at 280 nm. The amount of NDGA in the experimental samples was calculated from the peak area following calibration of the NDGA standards dissolved directly in capillary zone electrophoresis (CZE) buffer. Based on capillary zone electrophoretic analysis of NDGA-containing medium, NDGA disappears from the medium with time in culture, even in the absence of cells (FIGS. 13A and 13B). NDGA was dissolved in DMSO to 10 mM and then diluted 100-fold into the medium. For the zero time point, the medium containing NDGA was diluted 3-fold with CZE buffer and electrophoresed immediately. For the 24 hour time point, the medium was incubated at 37° C. in a cell culture incubator before diluting 3-fold and electrophoresing. […] The fate of the NDGA is unclear. Its disappearance may involve oxidation of the catechols to quinones, since the medium developed a brown pigment similar to that formed from chemically oxidized NDGA. In the medium containing […] NDGA, less than 10% of the initial NDGA remained after 24 hours, decreasing the NDGA concentration to below […] (FIGS. 13A and 13B).

Data set [2] concerns primary tendon fibroblast cultures. Kind of data set: Fibroblast replication after single NDGA exposure. Type of data set: cell-based, calf. As for the experimental part: (§1) Cell cultures: Digital extensor tendons were excised fresh from new born calves euthanized at a local abattoir and held in Dulbecco's Phosphate Buffered Saline during dissection and preparation for culture. Tendons were minced, weighed, and then digested with 0.1% w/v testicular hyaluronidase in 0.15 M NaCl, 0.1 M NaH2PO4, pH 7.0 (5 ml/g wet tissue weight) at 37° C. for 45 minutes. The hyaluronidase wash was decanted and the tissue was next digested with 5 mg/g tissue of Pronase E and 5 mg/g tissue of collagenase in 4% bovine serum albumen in DMEM/Ham F12 medium at 37° C. overnight. Cells were isolated from the tissue residue and washed with PBS. Cells were dispersed in DMEM/Ham F12 medium, counted, and plated on 24-well culture plates. Cells were cultured in DMEM/Ham F12 containing 10% FBS unless otherwise noted.
Effect of NDGA on fibroblast replication. To determine whether NDGA or oxidation products derived from the cross-linking reaction influenced cell replication, primary tendon fibroblast cultures were treated with a single exposure at the start of culture with concentrations of NDGA from […]. Fibroblasts were subsequently cultured for 1, 2, and 4 weeks. At each time point, the number of viable cells in each treatment group was determined. The lower NDGA concentrations, […], had no effect on cell replication (FIG. 15).

Data set [3] deals with confluent tendon fibroblasts. Nature of the data set: Cytotoxicity test of NDGA and its oxidation products, CYQUANT viable cell number. In kind it is cell-based, calf. The procedure:
as §1
Cytotoxicity tests: The potential toxicity of NDGA, its reaction products, and the NDGA cross-linked fibers was determined using confluent tendon fibroblasts. NDGA was tested by dissolving NDGA in DMSO, then directly diluting in the medium containing 10% FBS to the desired final concentrations. […] Fibroblasts were cultured in the presence of NDGA or its oxidation products for 24 hours, and then the number of viable cells was measured with the CYQUANT® Cell Proliferation Assay Kit (Molecular Probes).

The mark [4] stands for this setting: medium containing, after 24 hours.

In the case of `CC(Cc1ccc(O)c(O)c1)C(C)Cc1ccc(O)c(O)c1` (centres unmarked) [NDGA, Nordihydroguaiaretic acid], in data set [1] (10 mM in DMSO diluted 100-fold into medium, 37° C., no cells, by 24 hours), the “NDGA vanished from medium” value is given as “over 95%”. The “Initial NDGA remaining in medium” value in data set [1] (setting [4]) is reported as “less than 10%”. Besides, the “NDGA concentration in medium” value in data set [1] (setting [4]) is on record as “below 100 mM”. Further, the “Effect on cell replication” value is on record as “no effect” in data set [2] (1 and 10 mM NDGA, culture 1, 2, 4 weeks); “toxic to the cells” in data set [2] (highest NDGA concentration); “temporary delay in replication” in data set [2] (one hundred millimolar NDGA, after first week rate similar to control). Moreover, the “Reduction in viable cells” value in data set [3] (1000 mM NDGA, after 24 hr) was 80%. Also, the “Effect on cell viability over that of DMSO alone” value in data set [3] (NDGA at 1, 10, and 100 mM, 24 hours of exposure) was “little effect”.
